Assay results: patent publication US20160193188A1, “METHODS AND COMPOSITIONS FOR INCREASING THE EFFECTIVENESS OF ANTIVIRAL AGENTS” (ANTIVIRUS THERAPEUTICS, priority 2013, published 2016)
Where two headings read alike, the source gives them in different places.

Experiments:
[1] = tested on: rhinovirus type 39; assay: Study 843-203: experimentally induced human rhinovirus respiratory infection in healthy adults, antiviral and clinical efficacy; type: in vivo
Protocol: Subjects were confined to a clinical facility with on-site medical surveillance from Day −2 through Day 5; outpatient follow-up visits were conducted on Days 5-7. On Day −1, 24 hours before administration of the first dose of study drug, each subject received an intranasal inoculation of 100-300 tissue culture infective dose 50% (TCID50) rhinovirus type 39. Nasal wash specimens were collected pre-inoculation and once or twice daily at predetermined time points on Days 1-7 for virologic determinations. Nasal mucus weights were determined daily through Day 4. The presence and severity of clinical symptoms were assessed throughout the study period. […] One subject in the pleconaril BID nasal spray group had study drug interrupted temporarily due to “blood in nasal mucus” observed on Day 1; this event was considered mild and resolved without treatment, and the subject completed BID dosing on Days 2 and 3.
Primary Endpoint: Log-transformed virus titers from serial nasal wash samples in Study 843-203 are shown in FIG. 2 for virology evaluable subjects (i.e., those subjects with a pre-inoculation serum neutralizing antibody titer to rhinovirus type 39 ˜1:2 and reverse transcriptase polymerase chain reaction [RT-PCR] and culture negative nasal wash sample and at least one post baseline nasal wash sample that was RT-PCR or culture positive). At the time of maximum viral titers (Day 2 AM) in the combined vehicle groups, median viral titers in each pleconaril group were 0.78-1.26 log lower than vehicle groups, and viral titers in the combined pleconaril BID/TID groups were 1 log lower than the vehicle groups.

[2] = Study 843-203: safety and tolerability in healthy adults; type: in vivo, human; conditions: healthy volunteers
[3] = 25° C.; cited from earlier work
[4] = tested on: CYP 3A; conditions: oral delivery, 200-400 mg dose level, cited from earlier work
[5] = tested on: human respiratory picornavirus; conditions: oral dosage form; cited from earlier work
[6] = 12 mg per day nasal spray; cited from earlier work

With `Cc1cc(CCCOc2c(C)cc(-c3noc(C(F)(F)F)n3)cc2C)on1` [pleconaril, 3-{3,5-dimethyl-4-[3-(3-methylisoxazol-5-yl)propoxy]phenyl}-5-(trifluoromethyl)-1,2,4-oxadiazole] the “repeated measures analysis of viral titers, between-group comparison” value ([1]; Day 1 PM to Day 7) was “not significant”, the “median log-transformed viral titers vs vehicle groups” value ([1]; each pleconaril treatment group (intranasal and oral), initiation of study drug through Day 3 AM) was “lower than the vehicle groups at all measured time points” and the “nasal mucus weights vs combined vehicle controls” value ([1]; nasal and oral pleconaril groups) was “significantly lower nasal mucus weights”. The benefit vs. vehicle ([1]; nasal and oral pleconaril groups, through day 3 post infection) was “showed benefit vs. vehicle”, the “effect on common cold symptom duration and viral titers” value ([1]; nasal spray BID, nasal spray TID or oral) was “effective in reducing common cold symptom duration and viral titers” and the “median viral titers lower than vehicle groups” value ([1]; nasal wash, Day 2 AM (time of maximum viral titers), each pleconaril group) was 0.78-1.26 log. For the same compound, the “viral titers lower than vehicle groups” value ([1]; nasal wash, Day 2 AM, combined pleconaril BID/TID groups) was 1 log, the serious adverse events [2] was “No serious adverse events” and the solubility in water [3] was under 0.02 µg/mL. The “CYP 3A / CYP 3A4 induction” value [4] was “inducer of CYP 3A4”, the “CYP 3A / CYP 3A4 induction” value ([4]; listed as Pleconaril) was “induction of CYP 3A” and the “activity against human respiratory picornavirus” value [5] was “broad activity”. The “clinical/antiviral effect compared with 400 mg oral dose” value [6] was “roughly similar clinical/antiviral effect” and the systemic exposure [6] was “without any significant systemic exposure”.
